Reference: ChEMBL document CHEMBL1201862, “PubChem BioAssay data set” (2004)
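Five compound concentrations were applied to cells in 96-well plates for 48 hours; endpoints were derived by simple linear interpolation of the resulting dose-response curve. Abbreviation: GI50, concentration required for 50% inhibition of growth.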 Active and inactive are the calls of the source. Cut-off read from the data, not from the text of the source: active = GI50 up to about 1.1 µM and inactive = higher.

Legend:
Assay in all cases: growth of human tumour cells (NCI), 48 h
786-0 = test system: 786-0
COLO 205 = test system: COLO 205
EKVX = test system: EKVX
HCT-116 = test system: HCT-116
HOP-62 = test system: HOP-62
HOP-92 = test system: HOP-92
IGROV-1 = test system: IGROV-1
KM12 = test system: KM12
M14 = test system: M14
MOLT-4 = test system: MOLT-4
NCI-H23 = test system: NCI-H23
OVCAR-4 = test system: OVCAR-4
RPMI-8226 = test system: RPMI-8226
SK-MEL-28 = test system: SK-MEL-28
SK-MEL-2 = test system: SK-MEL-2
SK-MEL-5 = test system: SK-MEL-5
SNB-19 = test system: SNB-19
U-251 = test system: U-251
SN12C = test system: SN12C
MCF7 = test system: MCF7

Row | SMILES | GI50 (786-0) | GI50 (COLO 205) | GI50 (EKVX) | GI50 (HCT-116) | GI50 (HOP-62) | GI50 (HOP-92) | GI50 (IGROV-1) | GI50 (KM12) | GI50 (M14) | GI50 (MOLT-4) | GI50 (NCI-H23) | GI50 (OVCAR-4) | GI50 (RPMI-8226) | GI50 (SK-MEL-28) | GI50 (SK-MEL-2) | GI50 (SK-MEL-5) | GI50 (SNB-19) | GI50 (U-251) | GI50 (SN12C) | GI50 (MCF7)
1 | C#CCNC(CS)C(=O)O (configuration not stated) | > 100 µM (inactive) | > 100 µM (inactive) | > 100 µM (inactive) | > 100 µM (inactive) | > 100 µM (inactive) | > 100 µM (inactive) | > 100 µM (inactive) | > 100 µM (inactive) | > 100 µM (inactive) | > 100 µM (inactive) | > 100 µM (inactive) | > 100 µM (inactive) | > 100 µM (inactive) | > 100 µM (inactive) | > 100 µM (inactive) | > 100 µM (inactive) | > 100 µM (inactive) | > 100 µM (inactive) | – | –
2 | CC(=O)NC1C(OCc2ccccc2)OC(CO)C(O)C1OC(C)C(=O)N[C@@H](C)C(=O)N[C@H](CCC(=O)OCCNc1c2ccccc2nc2cccc([N+](=O)[O-])c12)C(N)=O (some centres not stated) | 0.000328 µM (active) | 0.00111 µM (active) | 0.00165 µM (active) | 0.000195 µM (active) | – | 0.00178 µM (active) | 0.0215 µM (active) | 0.00114 µM (active) | 0.00109 µM (active) | 0.00385 µM (active) | 0.00148 µM (active) | 0.0038 µM (active) | 0.000782 µM (active) | 0.00441 µM (active) | 0.00211 µM (active) | 0.00239 µM (active) | 0.000187 µM (active) | – | 0.00531 µM (active) | –
3 | [N-]=[N+]=NC[C@H]1OCO[C@H](CN=[N+]=[N-])[C@H]2OCCOCCOc3ccccc3OCCOCCO[C@@H]21 | > 100 µM (inactive) | > 100 µM (inactive) | > 100 µM (inactive) | > 100 µM (inactive) | > 100 µM (inactive) | – | > 100 µM (inactive) | > 100 µM (inactive) | > 100 µM (inactive) | > 100 µM (inactive) | > 100 µM (inactive) | > 100 µM (inactive) | > 100 µM (inactive) | > 100 µM (inactive) | > 100 µM (inactive) | > 100 µM (inactive) | > 100 µM (inactive) | > 100 µM (inactive) | > 100 µM (inactive) | > 100 µM (inactive)
4 | Cc1nn(C(=O)Cc2ccccc2)c2c1C(c1ccc3ccccc3c1O)SC(=N)N2 (configuration not stated) | – | > 100 µM (inactive) | > 100 µM (inactive) | > 100 µM (inactive) | > 100 µM (inactive) | – | > 100 µM (inactive) | > 100 µM (inactive) | > 100 µM (inactive) | 37.8 µM (inactive) | > 100 µM (inactive) | – | 76.2 µM (inactive) | > 100 µM (inactive) | – | > 100 µM (inactive) | > 100 µM (inactive) | – | > 100 µM (inactive) | > 100 µM (inactive)
5 | O=P(O)(Cc1ccccc1)c1ccccc1-c1ccccc1 | > 100 µM (inactive) | 57.8 µM (inactive) | 41.9 µM (inactive) | > 100 µM (inactive) | > 100 µM (inactive) | – | > 100 µM (inactive) | 77.3 µM (inactive) | > 100 µM (inactive) | > 100 µM (inactive) | > 100 µM (inactive) | > 100 µM (inactive) | – | > 100 µM (inactive) | > 100 µM (inactive) | > 100 µM (inactive) | > 100 µM (inactive) | 57.1 µM (inactive) | > 100 µM (inactive) | > 100 µM (inactive)
6 | CC(C)(C)c1ccc(OCCOCCOc2ccc(C(C)(C)C)cc2S(N)(=O)=O)c(S(N)(=O)=O)c1 | > 100 µM (inactive) | > 100 µM (inactive) | > 100 µM (inactive) | 17.4 µM (inactive) | > 100 µM (inactive) | 24.6 µM (inactive) | > 100 µM (inactive) | 52.1 µM (inactive) | 61.4 µM (inactive) | 4.46 µM (inactive) | > 100 µM (inactive) | > 100 µM (inactive) | 7.55 µM (inactive) | 94.6 µM (inactive) | 67.8 µM (inactive) | 8.13 µM (inactive) | > 100 µM (inactive) | > 100 µM (inactive) | > 100 µM (inactive) | –
7 | NC(CCCCNC(=O)C(Cc1ccccc1)NC(=O)OCc1ccccc1)C(=O)NC(CCCCNC(=O)C(Cc1ccccc1)NC(=O)OCc1ccccc1)C(=O)NC(CCCCNC(=O)C(Cc1ccccc1)NC(=O)OCc1ccccc1)C(=O)NC(CCCCNC(=O)C(Cc1ccccc1)NC(=O)OCc1ccccc1)C(=O)NC(CCCCNC(=O)C(Cc1ccccc1)NC(=O)OCc1ccccc1)C(=O)NC(CCCCNC(=O)C(Cc1ccccc1)NC(=O)OCc1ccccc1)C(=O)O (configuration not stated) | > 100 µM (inactive) | – | – | > 100 µM (inactive) | > 100 µM (inactive) | – | > 100 µM (inactive) | – | > 100 µM (inactive) | > 100 µM (inactive) | > 100 µM (inactive) | > 100 µM (inactive) | > 100 µM (inactive) | > 100 µM (inactive) | > 100 µM (inactive) | > 100 µM (inactive) | > 100 µM (inactive) | > 100 µM (inactive) | > 100 µM (inactive) | > 100 µM (inactive)
